Laboratory results: US9193731B2, “Antimicrobial compounds and methods of making and using the same” (Melinta Therapeutics, Inc., priority 2009, dated 2015)
Counter-ions that a name gives are not always drawn. Like-named read-outs stand apart in the source and are kept apart here.

Test system: Escherichia coli strain ATCC25922
Experiment: standard microdilution assay to determine minimum inhibitory concentrations (MICs)
Type: cell-based
Conditions: for E. coli ATCC25922 MIC: Escherichia coli strain ATCC25922, microdilution; for MIC: Escherichia coli
Outline: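 Broth microdilution MIC against E. coli ATCC25922, following CLSI protocols, typically in a 100 microliter final volume. Results reported as +/− relative to a 16 micrograms/ml cutoff.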

[1] = ATCC25922, Escherichia coli strain ATCC25922, microdilution, read-out: E. coli ATCC25922 MIC

| SMILES | E. coli ATCC25922 MIC | MIC [1] [µg/mL] | also measured |
| --- | --- | --- | --- |
| CC(C)(C)NCC(=O)Nc1ccc(-c2cc3cn(-c4ccc(C(=O)NCCCNC(=N)N)cc4)c(=O)nc3[nH]2)cc1 [Compound 1281] | + (a “+” indicates that the compound has an MIC value of 16 micrograms/ml or less) | – | – |
| N=C(N)NCCCNCC(Cn1cc2cc(-c3ccc(S(=O)(=O)NC4CCNCC4)cc3)[nH]c2nc1=O)OCc1ccc(F)c(F)c1 (centres unmarked) [Compound 1089] | − (a “−” indicates that the compound has an MIC value greater than 16 micrograms/ml) | – | – |
| N=C(N)NCCCNCc1ccc(-n2cc3cc(-c4cc(C(=O)NC5CCC(F)(F)CC5)cc(N5CCNCC5)c4)[nH]c3nc2=O)cc1 [Compound 1045] | + (a “+” indicates that the compound has an MIC value of 16 micrograms/ml or less) | – | – |
| NCCCNCc1ccc(-c2cn3cc(-c4ccc(F)cc4)[nH]c3nc2=O)cc1 [Compound 506] | – | > 16 | – |
| CC(C)ONC(=O)c1ccc(-c2cn3cc(-c4ccc(CNCCCNC(=N)N)cc4)c(=O)nc3[nH]2)cc1 [Compound 737] | – | > 16 | – |
| NCc1ccc(-n2cc3cc(-c4cccc(S(=O)(=O)N(CCn5cccc5)C5CCNCC5)c4)[nH]c3nc2=O)cc1 [Compound 1187] | – | > 16 | – |
| N=C(N)NCCCNCc1ccc(-n2cc3cc(-c4cc(OC(F)(F)F)cc(S(=O)(=O)CCCN)c4)[nH]c3nc2=O)cc1 [Compound 2052a] | + (a “+” indicates that the compound has an MIC value of 16 micrograms/ml or less) | – | – |
| N=C(N)N[C@H]1CCCN(Cc2ccc(-n3cc4cc[nH]c4nc3=O)cc2)C1 [Compound 1155] | – | > 16 | – |
| N=C(N)NCCCNCc1ccc(-n2cc3cc(CCNC4CCNCC4)[nH]c3nc2=O)cc1 [Compound 719] | – | < 16 | – |
| N=C(N)NCCCNC(=O)c1ccc(-n2cc3cc(-c4cccc(OC[C@@H](O)CN)c4)[nH]c3nc2=O)cc1 [Compound 1399] | + (a “+” indicates that the compound has an MIC value of 16 micrograms/ml or less) | – | – |
| N=C(N)NCCCNCc1ccc(-n2cc3cc(-c4cc(OCCCN)cc(N5CCNCC5)c4)[nH]c3nc2=O)cc1 [Compound 2010a] | + (a “+” indicates that the compound has an MIC value of 16 micrograms/ml or less) | – | – |
| N=C(N)NCCCNCc1ccc(-n2cc3cc(-c4cccc(OCC5(CN)CC5)c4)[nH]c3nc2=O)cc1 [Compound 1413] | + (a “+” indicates that the compound has an MIC value of 16 micrograms/ml or less) | – | – |
| NCCCCOc1ccc(-c2cn3cc(-c4ccc(C(=O)NC5CCNCC5)cc4)[nH]c3nc2=O)cc1 [Compound 829] | – | > 16 | – |
| N=C(N)NCCCNCc1ccc(-c2cn3c(nc2=O)[nH]c2ccccc23)cc1 [Compound 602, N-{3-[4-(2-Oxo-2,10-dihydro-benzo[4,5]imidazo[1,2-a]pyrimidin-3-yl)-benzylamino]-propyl}-guanidine hydrochloride salt] | – | – | MIC (ATCC25922, read-out: E. coli ATCC25922 MIC): < 16 µg/mL |
| N=C(N)NCCCNCc1ccc(-n2cc3cc(-c4cccc(OC[C@H]5CCNC5)c4)[nH]c3nc2=O)cc1 [Compound 1438] | + (a “+” indicates that the compound has an MIC value of 16 micrograms/ml or less) | – | – |
| N=C(N)NCCCNCc1ccc(-n2cc3cc(-c4ccc(S(=O)(=O)N(CCCC5CCCC5)C5CCNCC5)cc4)[nH]c3nc2=O)cc1 [Compound 840] | + (a “+” indicates that the compound has an MIC value of 16 micrograms/ml or less) | – | – |
| NC(=O)COc1cccc(-n2cc3cc(-c4ccc(S(=O)(=O)NC5CCNCC5)cc4)[nH]c3nc2=O)c1 [Compound 1253] | – | > 16 | – |
| COc1ccc(CN(C2CCNCC2)S(=O)(=O)c2ccc(-c3cc4cn(-c5ccc(CNCCCNC(=N)N)cc5)c(=O)nc4[nH]3)cc2)cc1[N+](=O)[O-] [Compound 787] | + (a “+” indicates that the compound has an MIC value of 16 micrograms/ml or less) | – | – |
| N=C(N)NCCCNCc1ccc(-n2cc3cc(-c4cc(CNc5ccc(F)cc5)cc(N5CCNCC5)c4)[nH]c3nc2=O)cc1 [Compound 1060] | + (a “+” indicates that the compound has an MIC value of 16 micrograms/ml or less) | – | – |
| CN1CCN(C(=O)c2ccc(-c3cn4cc(-c5ccc(CNCCCNC(=N)N)cc5)c(=O)nc4[nH]3)cc2)CC1 [Compound 706] | – | < 16 | – |
| N=C(N)NCCCNCc1ccc(-n2cc3cc(-c4cc(CCCCN)cc(S(N)(=O)=O)c4)[nH]c3nc2=O)cc1 [Compound 2092a] | + (a “+” indicates that the compound has an MIC value of 16 micrograms/ml or less) | – | – |
| NCCCNCc1ccc(-n2cc3cc(-c4ccc(S(=O)(=O)NC5CCNCC5)cc4)[nH]c3nc2=O)cc1 [Compound 852] | – | < 16 | – |
| CCOCCOc1cccc(-c2cc3cn(-c4ccc(CN)cc4)c(=O)nc3[nH]2)c1 [Compound 1121] | – | > 16 | – |
| N=C(N)NCCCNCc1ccc(-n2cc3cc(CCS(=O)(=O)NC4CCNCC4)[nH]c3nc2=O)cc1 [Compound 926] | – | < 16 | – |

| SMILES | E. coli ATCC25922 MIC | MIC [1] [µg/mL] | also measured |
| --- | --- | --- | --- |
| NCc1ccc(-n2cc3cc(-c4ccc(S(=O)(=O)N(CCCC5CCCO5)C5CCNCC5)cc4)[nH]c3nc2=O)cc1 (centres unmarked) [Compound 1066] | – | > 16 | – |
| CS(=O)(=O)NCc1cc(OCC(F)CN)cc(-c2cc3cn(-c4ccc(CNCCCNC(=N)N)cc4)c(=O)nc3[nH]2)c1 (centres unmarked) [Compound 2037a] | − (a “−” indicates that the compound has an MIC value greater than 16 micrograms/ml) | – | – |
| N=C(N)NCCCNCc1ccc(-n2cc3cc(-c4ccc(S(=O)(=O)N(CCCc5cnc6ncnn6c5)C5CCNCC5)cc4)[nH]c3nc2=O)cc1 [Compound 862] | + (a “+” indicates that the compound has an MIC value of 16 micrograms/ml or less) | – | – |
| CCCCn1cc(CCN)c2ccc(-n3cc4cc(CCS(=O)(=O)C5CCNCC5)[nH]c4nc3=O)cc21 [Compound 1258] | – | > 16 | – |
| CC(N)CCOc1cccc(-c2cc3cn(-c4ccc(CNCCCNC(=N)N)cc4)c(=O)nc3[nH]2)c1 (centres unmarked) [Compound 1439] | + (a “+” indicates that the compound has an MIC value of 16 micrograms/ml or less) | – | – |
| NCCCNCc1ccc(-n2cc3cc(CCC(=O)N4CC[C@H](F)C4)[nH]c3nc2=O)cc1 [Compound 298] | – | > 16 | – |
| NCCCNCc1ccc(-n2cc3cc(-c4ccc(S(=O)(=O)N(C5CCNCC5)C5CCOCC5)cc4)[nH]c3nc2=O)cc1 [Compound 726] | – | < 16 | – |
| CN(Cc1ccccc1)C(=O)c1cc(-c2cc3cn(-c4ccc(CNCCCNC(=N)N)cc4)c(=O)nc3[nH]2)cc(N2CCNCC2)c1 [Compound 989] | + (a “+” indicates that the compound has an MIC value of 16 micrograms/ml or less) | – | – |
| CNCc1ccc(-n2cc3cc(-c4ccc(S(=O)(=O)N(CCCN5CCc6ccccc65)C5CCNCC5)cc4)[nH]c3nc2=O)cc1 [Compound 1063] | − (a “−” indicates that the compound has an MIC value greater than 16 micrograms/ml) | – | – |
| NCCCOCc1ccc(-c2cn3cc(-c4ccc(C(=O)N5CCNCC5)cc4)[nH]c3nc2=O)cc1 [Compound 931] | − (a “−” indicates that the compound has an MIC value greater than 16 micrograms/ml) | – | – |
| N=C(N)NCCCNCc1ccc(-c2cn3cc(C(=O)Nc4ccc(F)cc4)[nH]c3nc2=O)cc1 [Compound 965] | – | > 16 | – |
| Cc1cc(CN(C(=O)c2ccc(-c3cc4cn(-c5ccc(CN(CCCN)CCCN)cc5)c(=O)nc4[nH]3)cc2)C2CCNCC2)no1 [Compound 226] | – | > 16 | – |
| N=C(N)NCCCNCc1ccc(-n2cc3cc(-c4cc(OCC(F)CN)cc(N5CCOCC5)c4)[nH]c3nc2=O)cc1 (centres unmarked) [Compound 2013a] | + (a “+” indicates that the compound has an MIC value of 16 micrograms/ml or less) | – | – |
| N=C(N)NCCCNCc1ccc(-n2cc3cc(-c4cc(CN)cc(OCC(F)CN)c4)[nH]c3nc2=O)cc1 (centres unmarked) [Compound 2051a] | + (a “+” indicates that the compound has an MIC value of 16 micrograms/ml or less) | – | – |
| N=C(N)NCCCNCc1ccc(-n2cc3cc(-c4cc(CNCCc5ccc(F)cc5)cc(N5CCNCC5)c4)[nH]c3nc2=O)cc1 [Compound 1044] | + (a “+” indicates that the compound has an MIC value of 16 micrograms/ml or less) | – | – |
| CCOC(CN)COc1cccc(-c2cc3cn(-c4ccc(CNCCCNC(=N)N)cc4)c(=O)nc3[nH]2)c1 (centres unmarked) [Compound 1458] | + (a “+” indicates that the compound has an MIC value of 16 micrograms/ml or less) | – | – |
| N=C(N)NCCCNCc1ccc(-n2cc3cc(-c4cc(C(=O)N5CCc6ccccc6C5)cc(N5CCNCC5)c4)[nH]c3nc2=O)cc1 [Compound 1009] | + (a “+” indicates that the compound has an MIC value of 16 micrograms/ml or less) | – | – |
| NCc1ccc(-n2cc3cc(-c4ccc(S(=O)(=O)N(CCCn5cccn5)C5CCNCC5)cc4)[nH]c3nc2=O)cc1 [Compound 1035] | – | > 16 | – |
| NCCCNCCCCCn1cc2cc(-c3ccc(S(=O)(=O)NC4CCNCC4)cc3)[nH]c2nc1=O [Compound 873] | + (a “+” indicates that the compound has an MIC value of 16 micrograms/ml or less) | – | – |
| N=C(N)NCCCCCN1CCN(c2cn3cc(-c4ccc(Br)cc4)[nH]c3nc2=O)CC1 [Compound 882] | – | > 16 | – |
| N=C(N)NCCCNCc1ccc(-n2cc3cc([C@H]4C[C@@H](N)[C@@H](CO)O4)[nH]c3nc2=O)cc1 [Compound 1266] | – | < 16 | – |
| N=C(N)NCCCNCc1ccc(-n2cc3cc(-c4cc(CN5CCS(=O)(=O)CC5)cc(N5CCNCC5)c4)[nH]c3nc2=O)cc1 [Compound 915] | + (a “+” indicates that the compound has an MIC value of 16 micrograms/ml or less) | – | – |
| CC1CN(S(=O)(=O)c2ccc(-c3cc4cn(-c5ccc(CNCCCNC(=N)N)cc5)c(=O)nc4[nH]3)cc2)CC(C)N1 (centres unmarked) [Compound 872] | + (a “+” indicates that the compound has an MIC value of 16 micrograms/ml or less) | – | – |
